IC50 data for ten compounds are collected here from patent publication US20260184707A1, “PHARMACEUTICAL COMPOUNDS FOR THE TREATMENT OF COMPLEMENT MEDIATED DISORDERS” (ALEXION PHARMACEUTICALS, INC., priority 2022, published 2026).

This assay deals with T1, Human complement C1s enzyme (Homo sapiens, UniProt P09871).
T1 construct: purified from human serum, Complement Technology, Inc; purchased Complement Technology, Inc; host or cells: human serum (plasma-derived native protein)
T1 sequence (P09871 438-688 limits assumed): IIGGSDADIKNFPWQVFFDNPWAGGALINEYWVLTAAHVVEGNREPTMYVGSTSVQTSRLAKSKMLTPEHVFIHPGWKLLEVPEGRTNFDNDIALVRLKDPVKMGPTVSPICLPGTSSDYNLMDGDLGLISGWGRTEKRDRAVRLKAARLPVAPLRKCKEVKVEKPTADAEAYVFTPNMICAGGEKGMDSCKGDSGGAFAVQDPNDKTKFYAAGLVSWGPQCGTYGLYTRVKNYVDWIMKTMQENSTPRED
T1 sequence (P09871 16-437 partner limits assumed): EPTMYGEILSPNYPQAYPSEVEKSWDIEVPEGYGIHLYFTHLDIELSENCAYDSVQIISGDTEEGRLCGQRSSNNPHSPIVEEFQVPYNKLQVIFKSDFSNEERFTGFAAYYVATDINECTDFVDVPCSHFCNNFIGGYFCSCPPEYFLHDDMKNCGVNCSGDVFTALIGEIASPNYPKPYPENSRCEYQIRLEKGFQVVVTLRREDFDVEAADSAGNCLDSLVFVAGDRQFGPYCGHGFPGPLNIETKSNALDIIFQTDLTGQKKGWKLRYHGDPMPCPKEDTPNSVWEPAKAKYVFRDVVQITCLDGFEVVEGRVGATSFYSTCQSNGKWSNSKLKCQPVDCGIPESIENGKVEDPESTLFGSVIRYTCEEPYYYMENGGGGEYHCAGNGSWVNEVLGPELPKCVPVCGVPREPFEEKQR
The assay can be described thus: Human C1s enzyme assay. The assay is classed as biochemical. The note with it: human complement C1s enzyme 1.16 nM, substrate Z-L-Lys-SBzl, A405; read-out: IC50 (Stars). The method, then:
The […] values of the compounds of Table 1 were determined with the human C1s enzyme assay described below. Other standard complement assays are also available.
Human complement C1s enzyme (purified from human serum, Complement Technology, Inc.) at 1.16 nM final concentration was incubated with test compound at various concentrations for 5 min at room temperature in 50 mM Tris, 1 M NaCl, pH 7.5. A synthetic substrate Z-L-Lys-SBzl and DTNB (Ellman's reagent) were added to final concentrations of 100 μM each. Absorbance at 405 nm (A405) was recorded at 30 second intervals for […] using a microplate spectrophotometer. IC values were calculated by nonlinear regression of complement C1s reaction rates as a function of test compound concentration.
[…]; ND indicates a compound for which the IC50 value is not determined.

As usually defined, the IC50 is the point on the concentration scale where inhibition reaches its midpoint.

Consider `C[C@@H](Nc1cnc(C2CCCC2)n(CC(=O)NCc2cc3cnccc3[nH]2)c1=O)c1ccc2oc3ccccc3c2c1` [Compound 324, (R)-N-((1H-pyrrolo[3,2-c]pyr-idin-2-yl)methyl)-2-(2-cyclo-pentyl-5-((1-(dibenzo[b,d]furan-2-yl)ethyl)amino)-6-oxo-pyrimidin-1(6H)-yl)acetamide], for which the half-maximal inhibitory concentration (IC50) was 100 to 1000 nM. Turning to `O=C(Cn1c(-c2ccccc2)ncc(NC(=O)c2ccc(-c3ccccc3)s2)c1=O)NCc1ccc(Cl)cc1` [Compound 256, N-(1-(2-((4-chlorobenzyl)-amino)-2-oxoethyl)-6-oxo-2-phenyl-1,6-dihydropyrimidin-5-yl)-5-phenylthiophene-2-carboxamide], the IC50 was more than 1000 nM.

Regarding `C[C@@H](Nc1ncc(N2CCCC(O)C2)n(CC(=O)NCc2cc3cnccc3[nH]2)c1=O)c1ccc2oc3ccccc3c2c1` (stereo partly drawn) [Compound 424, N-((1H-pyrrolo[3,2-c]pyridin-2-yl)methyl)-2-(3-(((R)-1-(dibenzo[b,d]furan-2-yl)ethyl)-amino)-6-(3-hydroxypiperidin-1-yl)-2-oxopyrazin-1(2H)-yl)-acetamide], the half-maximal inhibitory concentration (IC50) is less than 100 nM. Regarding `O=C(Cn1c(-c2ccc(S(F)(F)(F)(F)F)cc2)ncc(NCc2ccc3oc4ccccc4c3c2)c1=O)NCc1cc2cnccc2[nH]1` [Compound 297, N-((1H-pyrrolo[3,2-c]pyridin-2-yl)methyl)-2-(5-((dibenzo [b,d]furan-2-ylmethyl)amino)-6-oxo-2-(4-(pentafluoro-lambda6-sulfaneyl)phenyl)pyr-imidin-1(6H)-yl)acetamide], the IC50 is less than 100 nM. For `O=C(Cn1c(-c2ccccc2)ncc(NCc2ccc3oc4ccccc4c3c2)c1=O)NCc1cc2cnccc2[nH]1` [Compound 32, N-((1H-pyrrolo[3,2-c]pyridin-2-yl)methyl)-2-(5-((dibenzo [b,d]furan-2-ylmethyl)amino)-6-oxo-2-phenylpyrimidin-1(6H)-yl)acetamide], the half-inhibitory concentration (IC50) was less than 100 nM. Turning to `O=C(Cn1c(-c2ccccc2)ncc(NS(=O)(=O)c2ccccc2)c1=O)NCc1cc2cnccc2[nH]1` [Compound 395, N-((1H-pyrrolo[3,2-c]pyridin-2-yl)methyl)-2-(6-oxo-2-phen-yl-5-(phenylsulfonamido)-pyrimidin-1(6H)-yl)acetamide], the IC50 is more than 1000 nM. For `O=C(Cn1c(-c2ccc(OC3COC3)cc2)ncc(NCc2ccc3oc4ccccc4c3c2)c1=O)NCc1cc2cnccc2[nH]1` [Compound 130, N-((1H-pyrrolo[3,2-c]pyridine-2-yl)methyl)-2-(5-((dibenzo[b,d]furan-2-ylmethyl)amino)-2-(4-(oxetan-3-yloxy)phenyl)-6-oxopyrimidin-1(6H)-yl)acetamide], the IC50 was less than 100 nM.

Turning to `O=C(Cn1c(-c2ccccc2)ncc(NC(=O)c2cccc(-c3ncco3)c2)c1=O)NCc1cc2cnccc2[nH]1` [Compound 222, N-(1-(2-(((1H-pyrrolo[3,2-c]pyridine-2-yl)methyl)amino)-2-oxoethyl)-6-oxo-2-phenyl-1,6-dihydropyrimidin-5-yl)-3-(oxazol-2-yl)benzamide], the IC50 was more than 1000 nM.

Take `C[C@@H](Nc1cnc(N2CCN(C(=O)C3CC3)CC2)n(CC(=O)NCc2cc3cnccc3[nH]2)c1=O)c1ccc2oc3ccccc3c2c1` [Compound 468, (R)-N-((1H-pyrrolo[3,2-c]pyridin-2-yl)methyl)-2-(2-(4-(cyclopropanecarbonyl)piper-azin-1-yl)-5-((1-(dibenzo[b,d]furan-2-yl)ethyl)amino)-6-oxopyrimidin-1(6H)-yl)acet-amide]: the half-maximal inhibitory concentration (IC50) was in the range of 100 to 1000 nM. With `C[C@@H](Nc1cnc(N2CCCC2=O)n(CC(=O)NCc2cc3cnccc3[nH]2)c1=O)c1ccc2oc3ccccc3c2c1` [Compound 400, (R)-N-((1H-pyrrolo[3,2-c]pyridin-2-yl)methyl)-2-(5-((1-(dibenzo[b,d]furan-2-yl)ethyl)-amino)-6-oxo-2-(2-oxopyr-rolidin-1-yl)pyrimidin-1(6H)-yl)acetamide], the IC50 was less than 100 nM.
